The values that follow come from US20090023700A1, “NEUROPROTECTIVE TREATMENTS” (University of Louisville Research Foundation, priority 2007, published 2009).

This test concerns human aortic endothelial cells. Kind of test: Apoptosis of serum-deprived cultured endothelial cells. In kind it is cell-based. The settings on record: for apoptotic endothelial cells: 3 μM. How it is done:
To determine whether bpV(phen) can directly promote survival of endothelial cells, it was tested on cultured human aortic endothelial cells deprived of serum. […] With 3 μM bpV(phen), only ˜1.3% were apoptotic in both the 0 and 5% serum groups (FIG. 9A). Eighteen hours after plating under control conditions, between 5 and 13% of endothelial cells were apoptotic, whereas treatment with 3 μM bpV(phen) reduced apoptosis to ˜2-3% (FIG. 9B).
Endothelial cell cultures. Human aortic endothelial cells (Lonza Walkersville) were plated at 5×10^4 cells per well in 24 well polystyrene plates and incubated with different concentrations of bpV(phen) for 6 or 18 h at 37° C. in DMEM/Ham's F-12 (BioWhittaker) plus EGM-2 growth factor supplements [EGM-2 SingleQuots (Lonza Walkersville) containing hydrocortisone, human epidermal growth factor, FBS, vascular endothelial growth factor, human basic fibroblast growth factor, R3-IGF-1, ascorbic acid, heparin, and gentamicin/amphotericin-B] and 10-20% fetal calf serum. […] Afterward, the endothelial cells were fixed in 4% paraformaldehyde for 2 h, the nuclei were stained with 2.5 μg/ml DNA dye Hoechst 33258 (bis-benzimide; Sigma) in PBS containing 0.1% Triton X-100 for 30 min, and the cells were covered with Fluoromount-G (Southern Biotechnology) to reduce fluorescence-induced fading (Invitrogen).
Quantitative measurements and statistics. The extent of sensory innervation of the gracile nucleus was determined by measuring the CTB-labeled terminal fiber area in every third section as described previously (Baker et al. (2007) Exp Neurol 205:82-91). In short, images of every third section through the right and left gracile nuclei were analyzed using the density slice feature of the Scion Image software. […] Images of EC-stained sections were captured, and the positive areas were measured with Scion Image. […] The number of spared myelinated axons at C3 was counted in semithin sections using a 63× oil objective in 15.7×15.7 μm grids placed over the middle part of each fasciculus gracilis (see FIG. 4D-4F). […]

Take `O.O.O.OO.OO.[K+].[OH-].[V].c1cnc2c(c1)ccc1cccnc12` [bpV(phen), potassium bisperoxo(1,10-phenanthroline)oxovanadate (V)]: under “1 μM, 18 h, 0, 1.25, 2.5 and 5% serum”, the endothelial apoptosis result was “only reduces endothelial apoptosis in the 2.5 and 5% serum groups”. The apoptotic endothelial cells was approximately 1.3% (6 h after plating, 0 and 5% serum groups, control 2-3%); 2-3% (18 h after plating, serum deprived, control 5-13%).
